Where two headings read alike, the source gives them in different places.
What was measured:
[1] = 2 μM
Description: (§5) 1) Master solution was prepared according to Table 1, and then the test compounds and control compound were added into the master solution, with the final concentration of these compounds in the reaction system being 2 μM. Then the mixed solution was preheated at 37° C. for 2 minutes.
(§6) 2) NADPH was added into the mixed solution with the final concentration of NADPH being 1 mM, and then the reaction system was incubated at 37° C. The blank control was also added with the same volume of ultrapure water instead of NADPH.
(§7) 3) 50 μL aliquots were taken out from the reaction system at 0, 15, 30, 45 and 60 minutes, and added with 3 volumes of cold methanol to terminate the reaction. The aliquot was centrifugated for 10 minutes under 16000 g to precipitate proteins. 100 μL of supernatant was used for LC/MS/MS analysis, to determine the amounts of the remaining test compounds and the control compound. The aliquots were detected in duplicate.
(§8) The instruments and conditions for LC analysis were as follows:
(§9) Shimadzu (Degasser DGU—20A3, Solvent Delivery Unit LC—20ADXR, System Controller CBM—20A, Column Oven CTO—10ASVP), CTC Analytics HTC PAL—XT System
(§10) Column: Phenomenex 5μ C 18 (2) (2.0×50 mm)
(§11) The instrument and conditions for MS/MS analysis were as follows: • AB API4000 LC/MS/MS instrument • Source: Turbo spray • Ionization mode: ESI • Type of scan: MRM • Collision gas: 6 L/min; curtain gas: 30 L/min; atomized gas: 50 L/min; auxiliary gas: 50 L/min; temperature: 500° C.; spray voltage: 4500 v.

male SD rats [2] = experiment: Urine glucose at end of glucose tolerance test (Example 6); format: in vivo; conditions: for Urine glucose: 10 mg/kg orally, urine collected at end of glucose tolerance test, Mean ± SD
Description: (§1) Preparation of the administrated drugs, and grouping and administration of the animals were the same as those in Example 5.
(§2) Before the test, the rats were fasted for 16 hours and then administrated orally with the blank solution or compounds. The blood glucose baseline level was measured at 8 hours after administration, then the rats in each group were administrated orally with 50% glucose aqueous solution in an amount of 2 g/kg. The blood samples (1 drop) were taken from tail veins of rats in each group at 15 minutes, 30 minutes, 1 hour and 2 hours after oral administration of glucose, and the blood glucose level was measured by using Accu-Chek Aviva system.
At the end of the test, urine of the rats in each group was collected, and then the urine glucose level was analyzed by using TOSHIBA TBA-40FR automatic biochemical analyzer.
(§3) Statistical analysis was conducted and the significance level was set to be P<0.05. The mean and standard deviation were calculated for all measurement parameters which were designed for study. One-way analysis of variance (ANOVA) was performed by software GraphPad Prism 5.0 after multiple comparisons among groups.

male SD rats [3] = experiment: Oral glucose tolerance test, glucose 15 minutes after administration (Example 5); format: in vivo; conditions: 10 mg/kg orally; for Blood glucose / ΔAUC: Mean ± SD; for Effect on blood glucose level (in words): compared with the blank control group
Description: Compound 1, compound 2 and compound 3 were respectively dissolved in blank solutions (5% 1-methyl-2-pyrrolidinone, 20% PEG-400 and 20 mM sodium diphosphate) in the concentration of 10 g/L.
(§4) Experimental animals are male SD rats of 6-8 weeks old, with weight of 190-215 g, which were purchased from Beijing Vital River Laboratory Animal Technology Co., Ltd. The SD rats were randomly divided into four groups based on body weight, each group containing three rats. Wherein group 1 is the blank control group in which the rats were administrated with the above blank solution.
as §2, with “15 minutes” for “8 hours”
as §3

[4] = Pharmacokinetic test in vivo in SD rats; design: species or system male SD rats; conditions: 10 mg/kg; for AUC(0-inf) / AUC(0-t) / C0 / MRT / half-life / Tmax / bioavailability: male, rat, plasma; for bioavailability: read-out: F (oral bioavailability)
Description: Compound 1, compound 2 and compound 3 were respectively dissolved in blank solution (5% 1-methyl-2-pyrrolidinone, 20% PEG-400 and 20 mM sodium diphosphate) in a concentration of 10 g/L.
as §4, with “into seven” for “into four”, “the blank solution was” for “the rats were”, “administrated intravenously.” for “administrated with the above blank solution.”
Before the pharmacokinetic test, the SD rats were fasted for 16 hours, and then administrated intravenously (1 mL/kg; 10 mg/kg) or orally (1 mL/kg; 10 mg/kg) with single dose of the compound or blank solution according to Table 4. After administration 200 uL blood samples were collected regularly through jugular vein puncture, wherein for the group of animals administered intravenously, blood samples were collected at 0 minute, 15 minutes, 30 minutes, 1 hour, 2 hours, 4 hours, 8 hours and 24 hours after administration; for the group of animals administered orally, blood samples were collected at 0 minute, 15 minutes, 30 minutes, 45 minutes, 75 minutes, 135 minutes, 4 hours, 8 hours and 24 hours after administration. The blood samples were collected in a sample tube with EDTA, and immediately centrifuged under 4000 rpm for 0.5 minutes at 4° C., and then the plasma was transferred to another sample tube and stored at −20° C.
The method and instruments for pharmacokinetics test of samples were as follows: • HPLC: Shimadzu (DGV-20A3, Serial NO: SSI-3-0536; LC-20AD Serial NO: • L20104551674 USB and L20104551673 USB), CTC Analytics HTC PAL System (Serial NO: 4353); • MS: AB API4000 Q Trap LC/MS/MS instrument (Serial NO. AR19020706) • Column: Phenomenex Luna 5μ C18 (2.0×50 mm) • Mobile phase: 100% acetonitrile (2 mM ammonium acetate) and 100% water (2 mM ammonium acetate) • Quantitative Method: internal standard method

male SD rats [5] = experiment: Oral glucose tolerance test, glucose 8 hours after administration (Example 6), blood glucose; format: in vivo; conditions: for Blood glucose / ΔAUC: 10 mg/kg orally, Mean ± SD; for Effect on blood glucose level (in words): glucose at 8 hours after administration, compared with the blank control group
Description: as §1, §2, §3

[6] = male, 2 μM
Description: as §5, §6, §7, §8, §9, §10, §11

[7] = Stability test in vitro, human liver microsomes with NADPH; conditions: 2 μM, NADPH 1 mM, 37° C.
Description: as §5, §6, §7, §8, §9, §10, §11

[8] = Stability test in vitro, male rat liver microsomes with NADPH; conditions: 2 μM, NADPH 1 mM, 37° C.
Description: as §5, §6, §7, §8, §9, §10, §11

[9] = glucose 2 g/kg 15 minutes after administration, 15 minutes after glucose
[10] = glucose 2 g/kg 15 minutes after administration, 30 minutes after glucose
[11] = glucose 2 g/kg 15 minutes after administration, 1 hour after glucose
[12] = glucose 2 g/kg 15 minutes after administration, 2 hours after glucose
[13] = glucose 2 g/kg 15 minutes after administration
[14] = time 0 (baseline 15 minutes after administration, before glucose 2 g/kg)
[15] = iv, administrated intravenously
[16] = glucose 2 g/kg 8 hours after administration, 15 minutes after glucose
[17] = glucose 2 g/kg 8 hours after administration, 30 minutes after glucose
[18] = glucose 2 g/kg 8 hours after administration, 1 hour after glucose
[19] = glucose 2 g/kg 8 hours after administration, 2 hours after glucose
[20] = glucose 2 g/kg 8 hours after administration
[21] = time 0 (baseline 8 hours after administration, before glucose 2 g/kg)

| Structure (SMILES) | Urine glucose (male SD rats [2]) [mmol/L] | Blood glucose (male SD rats [3]; [9]) [mg/dL] | Blood glucose (male SD rats [3]; [10]) [mg/dL] | Blood glucose (male SD rats [3]; [11]) [mg/dL] | Blood glucose (male SD rats [3]; [12]) [mg/dL] | ΔAUC (male SD rats [3]; [13]) [mg·h/dL] | Blood glucose (male SD rats [3]; [14]) [mg/dL] | CI_obs ([4]; administrated intravenously) [mL/min/kg] | Vss_obs ([4]; administrated intravenously) [L/kg] | AUC(0-inf) [4, 15] [ng·h/mL] | AUC(0-t) [4, 15] [ng·h/mL] | C0 [4, 15] [ng/mL] | MRT [4, 15] [h] | half-life [4, 15] [h] | AUC(0-inf) ([4]; po, administrated orally) [ng·h/mL] | AUC(0-t) ([4]; po, administrated orally) [ng·h/mL] | C0 ([4]; po, administrated orally) [ng/mL] | Tmax ([4]; po, administrated orally) [h] | half-life ([4]; po, administrated orally) [h] | bioavailability ([4]; po, administrated orally) [%] | further results |
| --- | --- | --- | --- | --- | --- | --- | --- | --- | --- | --- | --- | --- | --- | --- | --- | --- | --- | --- | --- | --- | --- |
| CCOc1ccc(Cc2cc([C@@H]3O[C@H](CO)[C@@H](O)[C@H](O)[C@H]3O)ccc2Cl)cc1 [Compound 1, Dapagliflozin, reference compound] | 294.90 ± 12.29 | 97.2 ± 17.36 | 102.6 ± 20.44 | 94.8 ± 17.11 | 72.0 ± 10.95 | 20.2 ± 19.32 | 85.2 ± 4.53 | 2.99 | 0.903 | 56500 | 55800 | 11000 | 4.76 | 3.95 | 39100 | 41400 | 3880 | 1.25 | 4.14 | 69.1 | Residual percentage of compounds in human liver microsome ([1]; 0 min): 100.00%; Residual percentage of compounds in human liver microsome ([1]; 15 min): 100.36%; Residual percentage of compounds in human liver microsome ([1]; 30 min): 102.10%; Residual percentage of compounds in human liver microsome ([1]; 45 min): 101.77%; Blood glucose (male SD rats [5]; [16]): 96.60 ± 21.70 mg/dL; Blood glucose (male SD rats [5]; [17]): 131.40 ± 8.25 mg/dL; Blood glucose (male SD rats [5]; [18]): 123.60 ± 4.53 mg/dL; Blood glucose (male SD rats [5]; [19]): 72.60 ± 6.81 mg/dL; ΔAUC (male SD rats [5]; [20]): 107.90 ± 8.53 mg·h/dL; Blood glucose (male SD rats [5]; [21]): 50.40 ± 9.52 mg/dL; Residual percentage of compounds in rat liver microsome ([6]; 0 min): 100.00%; Residual percentage of compounds in rat liver microsome ([6]; 15 min): 88.37%; Residual percentage of compounds in rat liver microsome ([6]; 30 min): 90.68%; Residual percentage of compounds in rat liver microsome ([6]; 45 min): 83.66% |
| OC[C@H]1O[C@@H](c2ccc(Cl)c(Cc3ccc(OCC(F)(F)F)cc3)c2)[C@H](O)[C@@H](O)[C@@H]1O [Compound 2] | 197.90 ± 56.27 | 126.6 ± 26.11 | 143.4 ± 24.44 | 138.6 ± 17.17 | 97.2 ± 13.59 | 77.2 ± 20.44 | 85.8 ± 2.75 | 1.59 | 1.18 | 107000 | 87800 | 11300 | 7.35 | 9.8 | 193000 | 77300 | 5090 | 1.25 | 30 | 88 | Residual percentage of compounds in human liver microsome ([7]; sampling time 0 minute): 100.00%; Residual percentage of compounds in human liver microsome ([7]; sampling time 15 minutes): 80.84%; Residual percentage of compounds in human liver microsome ([7]; sampling time 30 minutes): 78.78%; Residual percentage of compounds in human liver microsome ([7]; sampling time 45 minutes): 76.73%; Residual percentage of compounds in human liver microsome ([7]; sampling time 60 minutes): 75.34%; Urine glucose level (in words) (male SD rats [2]; compared to the blank control group, oral administration): significantly increased; Effect on blood glucose level (in words) (male SD rats [3]): effect of lowering blood glucose level; Residual percentage of compounds in rat liver microsome ([8]; sampling time 0 minute): 100.00%; Residual percentage of compounds in rat liver microsome ([8]; sampling time 15 minutes): 88.20%; Residual percentage of compounds in rat liver microsome ([8]; sampling time 30 minutes): 94.51%; Residual percentage of compounds in rat liver microsome ([8]; sampling time 45 minutes): 91.65%; Residual percentage of compounds in rat liver microsome ([8]; sampling time 60 minutes): 88.27%; Blood glucose (male SD rats [5]; [16]): 103.20 ± 12.64 mg/dL; Blood glucose (male SD rats [5]; [17]): 154.20 ± 2.75 mg/dL; Blood glucose (male SD rats [5]; [18]): 141.00 ± 2.08 mg/dL; Blood glucose (male SD rats [5]; [19]): 85.20 ± 1.04 mg/dL; ΔAUC (male SD rats [5]; [20]): 115.00 ± 3.55 mg·h/dL; Blood glucose (male SD rats [5]; [21]): 62.40 ± 2.75 mg/dL; Effect on blood glucose level (in words) (male SD rats [5]): effect of lowering blood glucose level |
| OC[C@H]1O[C@@H](c2ccc(Cl)c(C(F)(F)c3ccc(OCC(F)(F)F)cc3)c2)[C@H](O)[C@@H](O)[C@@H]1O [Compound 3] | 0.10 ± 0.17 | 143.4 ± 18.91 | 172.8 ± 25.01 | 148.2 ± 11.98 | 88.8 ± 17.11 | 87.6 ± 15.90 | 90.0 ± 13.59 | 0.75 | 1.56 | 260000 | 113000 | 6640 | 10.1 | 28.3 | 44700 | 20800 | 1400 | 8 | 20.4 | 17.2 | Residual percentage of compounds in human liver microsome ([7]; sampling time 0 minute): 100.00%; Residual percentage of compounds in human liver microsome ([7]; sampling time 15 minutes): 105.74%; Residual percentage of compounds in human liver microsome ([7]; sampling time 30 minutes): 98.43%; Residual percentage of compounds in human liver microsome ([7]; sampling time 45 minutes): 101.18%; Residual percentage of compounds in human liver microsome ([7]; sampling time 60 minutes): 97.89%; Effect on blood glucose level (in words) (male SD rats [3]): effect of lowering blood glucose level; Residual percentage of compounds in rat liver microsome ([8]; sampling time 0 minute): 100.00%; Residual percentage of compounds in rat liver microsome ([8]; sampling time 15 minutes): 99.00%; Residual percentage of compounds in rat liver microsome ([8]; sampling time 30 minutes): 92.49%; Residual percentage of compounds in rat liver microsome ([8]; sampling time 45 minutes): 97.25%; Residual percentage of compounds in rat liver microsome ([8]; sampling time 60 minutes): 108.11%; Blood glucose (male SD rats [5]; [16]): 148.80 ± 9.06 mg/dL; Blood glucose (male SD rats [5]; [17]): 198.60 ± 8.51 mg/dL; Blood glucose (male SD rats [5]; [18]): 183.00 ± 12.25 mg/dL; Blood glucose (male SD rats [5]; [19]): 128.40 ± 3.75 mg/dL; ΔAUC (male SD rats [5]; [20]): 144.40 ± 18.72 mg·h/dL; Blood glucose (male SD rats [5]; [21]): 90.00 ± 1.80 mg/dL; Effect on blood glucose level (in words) (male SD rats [5]): effect of lowering blood glucose level |
